The results in this text go back to PMC11744973, “Optimized extraction and kinetic study of cholesterol oxidase from a newly isolated Escherichia fergusonii strain from local whey samples: insights through a combined experimental study and artificial neural network modeling” (BMC Microbiology, 2025).

This assay concerns T1, cholesterol oxidase (ChoX, ChOx).
T1 construct: native extracellular enzyme purified from culture supernatant (ammonium sulfate, Q-Sepharose)
Description: HRP-coupled 4-aminoantipyrine/phenol quinoneimine assay at […] nm, Lineweaver-Burk. To be noted: optimum conditions (30 °C, pH 7.5, in the presence of MgSO4 per abstract); KPB; cholesterol 0.1-3.0 mM in Triton X-100; O2 co-substrate. It counts as biochemical, Escherichia fergusonii.

On to `CC(C)CCC[C@@H](C)[C@H]1CC[C@H]2[C@@H]3CC=C4C[C@@H](O)CC[C@]4(C)[C@H]3CC[C@]12C` [cholesterol], for which the Km amounted to 710 µM.

By Km is commonly meant the concentration of substrate that gives half-maximal velocity.
